Measured values as given in paper PMC5640562, “Synthesis and anticancer activity of novel quinazolinone-based rhodanines” (Chemistry Central Journal, 2017).
pIC50: −log10 of the molar value.

How the values were obtained:
[1] = test system: HT-1080 cells; assay: MTT cytotoxicity assay, HT-1080 fibrosarcoma cells; type: cell-based, human; conditions: 3 days incubation, mean of three independent experiments (± standard deviation)
Protocol: (§1) The compounds were tested for their cytotoxic activity on a solid tumor cell line, i.e. HT-1080 originating from a fibrosarcoma (American Type Culture Collection; ATCC, Rockville, MD, USA), and on two leukemia cell lines, i.e. the HL-60 human promyelocytic leukemia (European Collection of Animal Cell Cultures; ECACC, Salisbury, UK) and the K-562 human chronic myelogenous leukemia (ATCC). Furthermore, the human skin fibroblast strain AG01523 (Coriell Institute for Medical Research, Camden, NJ, USA) was also used as normal control. Adherent cells were routinely cultured in Dulbecco’s […] (DMEM), and leukemia cells in RPMI 1640, in an environment of 5% CO2, 85% humidity, and 37 °C. All media were supplemented with penicillin (100 U/ml), streptomycin (100 μg/ml) (media and antibiotics from Biochrom KG, Berlin, Germany), and 10% fetal bovine serum (Life Technologies Europe BV, Thessaloniki, Greece). Adherent cells were subcultured using a trypsin (0.25%; Life Technologies Europe BV)—citrate (0.30%; Sigma, St. Louis, MO, USA) solution. The cytotoxicity assay was performed by a modification of the MTT method. Briefly, the cells were plated in flat-bottomed 96-well microplates at a density of 5000 cells/well, and incubated overnight before the addition of serial dilutions of the test compounds. The cells were incubated with the compounds or the corresponding vehicle (DMSO) concentrations for 3 days. Then, the medium was replaced with MTT (Sigma) in serum-free, phenol-red-free DMEM (1 mg/ml). After incubation for 4 h, the MTT formazan was solubilized in 2-propanol, and the optical density was measured using a FLUOstar Optima (BMG Labtech, Ortenberg, Germany) microplate reader at a wavelength of 550 nm (reference wavelength 660 nm). Doxorubicin hydrochloride (Sigma) was included in the experiments as positive control. The results represent the mean of three independent experiments and are expressed as IC50 [42].

[2] = test system: K-562 cells; assay: MTT cytotoxicity assay, K-562 chronic myelogenous leukemia cells; type: cell-based, human; conditions: 3 days incubation, mean of three independent experiments (± standard deviation)
Protocol: as §1

[3] = MTT cytotoxicity assay, normal skin fibroblast strain AG01523; type: cell-based; conditions: AG01523 normal skin fibroblasts, normal human skin fibroblasts, 3 days incubation, mean of three independent experiments (± standard deviation)
Protocol: as §1

[4] = test system: HL-60 cells; assay: MTT cytotoxicity assay, HL-60 promyelocytic leukemia cells; type: cell-based, human; conditions: 3 days incubation, mean of three independent experiments (± standard deviation)
Protocol: as §1

[5] = test system: HT-1080 cells; assay: Flow cytometric analysis of DNA content (cell cycle phase distribution); type: cell-based, human; conditions: 48 h, flow cytometry of DNA content (not shown)
[6] = test system: AG01523 fibroblasts; assay: MTT cytotoxicity assay, normal skin fibroblast strain AG01523; type: cell-based; conditions: normal human skin fibroblasts, 3 days incubation, mean of three independent experiments (± standard deviation)
Protocol: as §1

| melting point | Structure (SMILES) | pIC50 ([1]; Homo sapiens, HT-1080, 72 h) | IC50 K-562 cytotoxicity [2] | pIC50 ([2]; Homo sapiens, K562, 72 h) | IC50 at 3 days [3] [µM] | IC50 HL-60 cytotoxicity [4] | pIC50 ([4]; Homo sapiens, HL-60, 72 h) | Cell cycle phase distribution [5] | pIC50 [2] | pIC50 [6] | pIC50 [1] | pIC50 [4] |
| --- | --- | --- | --- | --- | --- | --- | --- | --- | --- | --- | --- | --- |
| 190 to 192 °C (dec.) | COc1ccc(-n2c(COc3ccc(C=C4SC(=S)NC4=O)cc3)nc3ccccc3c2=O)cc1 [Compound 40, 5-{4-[(3-(4-Methoxyphenyl)-4-oxo-3,4-dihydroquinazolin-2-yl)methoxy]benzylidene}-2-thioxothiazolidin-4-one] | 4.44 | – | – | – | – | – | – | – | – | – | – |
| 163 to 166 °C | COc1cc(C=C2SC(=S)NC2=O)ccc1OCc1nc2ccccc2c(=O)n1-c1ccc(F)cc1 [Compound 42, 5-{4-[(3-(4-Fluorophenyl)-4-oxo-3,4-dihydroquinazolin-2-yl)methoxy]-3-methoxybenzylidene}-2-thioxothiazolidin-4-one] | 4.45 | – | – | – | – | – | – | – | – | – | – |
| – | COc1cc(C=C2SC(=S)NC2=O)ccc1OCc1nc2ccccc2c(=O)n1-c1ccc(Cl)cc1 [Compound 43, 5-{4-[(3-(4-Chlorophenyl)-4-oxo-3,4-dihydroquinazolin-2-yl)methoxy]-3-methoxybenzylidene}-2-thioxothiazolidin-4-one] | 4.99 | low micromolar range | 5.35 | > 100 | low micromolar range | 5.29 | S-phase arrest | – | – | – | – |
| 147 to 150 °C | COc1cc(C=C2SC(=S)NC2=O)ccc1OCc1nc2ccccc2c(=O)n1-c1cccc(Cl)c1 [Compound 44, 5-{4-[(3-(3-Chlorophenyl)-4-oxo-3,4-dihydroquinazolin-2-yl)methoxy]-3-methoxybenzylidene]-2-thioxothiazolidin-4-one] | 4.55 | – | – | – | – | – | – | – | – | – | – |
| – | COc1cc(C=C2SC(=S)NC2=O)ccc1OCc1nc2ccccc2c(=O)n1-c1ccc(Br)cc1 [Compound 45, 5-{4-[(3-(4-Bromophenyl)-4-oxo-3,4-dihydroquinazolin-2-yl)methoxy]-3-methoxybenzylidene}-2-thioxothiazolidin-4-one] | 5.06 | low micromolar range | 5.82 | > 100 | low micromolar range | 5.92 | S-phase arrest | – | – | – | – |
| – | COc1cc(C=C2SC(=S)NC2=O)ccc1OCc1nc2ccccc2c(=O)n1-c1ccc(C(F)(F)F)cc1 [Compound 47] | – | low micromolar range | – | – | low micromolar range | – | – | 5.29 | < 4.00 | 4.80 | 5.59 |
| – | COc1cccc2c1C(=O)c1c(O)c3c(c(O)c1C2=O)C[C@@](O)(C(=O)CO)C[C@@H]3O[C@H]1C[C@H](N)[C@H](O)[C@H](C)O1 [Doxorubicin, reference compound] | 7.92 | – | 6.67 | 0.875 | – | 7.96 | – | – | – | – | – |
